molecular target: T1, GST-RIPK1 (recombinant GST-RIPK1 kinase domain (residues 1-327)) (Homo sapiens, UniProt Q13546); assay: RIPK1-ADP-Glo enzymatic assay; assay type: biochemical; details: 25 nM GST-RIPK1, 300 μM ATP, 3 μM dephosphorylated-MBP; 30 minutes pre-incubation, 150 minutes reaction; ten-point titration
T1 construct: recombinant GST-RIPK1 kinase domain (residues 1-327) enzyme; made in house; host or cells: baculovirus-transfected Sf21 insect cells
T1 sequence (Q13546 1-327): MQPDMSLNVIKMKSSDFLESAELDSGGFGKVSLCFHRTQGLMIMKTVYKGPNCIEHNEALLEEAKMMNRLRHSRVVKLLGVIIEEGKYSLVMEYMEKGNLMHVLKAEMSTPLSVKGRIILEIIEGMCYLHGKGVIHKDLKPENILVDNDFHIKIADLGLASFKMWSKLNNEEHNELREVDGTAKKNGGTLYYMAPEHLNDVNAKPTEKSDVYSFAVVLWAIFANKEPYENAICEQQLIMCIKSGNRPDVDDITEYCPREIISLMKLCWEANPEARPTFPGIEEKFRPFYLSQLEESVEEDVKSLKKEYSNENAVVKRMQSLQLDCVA
In short: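 Ten-point 1:3 titrations from 100000 nM, 1% DMSO, were preincubated 30 min with 25 nM GST-RIPK1 (1-327) before starting with 300 μM ATP plus 3 μM dephosphorylated MBP; 150 min reaction. ADP-Glo luminescence measured ATP-to-ADP conversion; EC50 by four-parameter sigmoidal regression.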

`CC1(C(=O)N2C[C@@H]3C[C@H]2c2cncc(C#Cc4ccc(F)cc4)c2O3)CCCC1` [Compound 2-121, ((2S,5S)-9-((4-Fluorophenyl)ethynyl)-2,3-dihydro-2,5-methanopyrido[3,4-f][1,4]oxazepin-4(5H)-yl)(1-methylcyclopentyl)methanone] and `O=C(N1C[C@@H]2C[C@H]1c1cncc(C#Cc3ccc(F)cc3)c1O2)C12CCC(F)(CC1)C2` [Compound 2-122, (4-fluorobicyclo[2.2.1]heptan-1-yl)((2S,5S)-9-((4-fluorophenyl)ethynyl)-2,3-dihydro-2,5-methanopyrido[3,4-f][1,4]oxazepin-4(5H)-yl)methanone] are within 1.5-fold of each other in IC50: 34 nM for the first, 24 nM for the second.

Compared with `CC(F)(F)C(C)(C)C(=O)N1C[C@@H]2C[C@H]1c1cncc(C#Cc3ccc(F)cc3)c1O2` [Compound 2-123, 3,3-difluoro-1-((25,5S)-9-((4-fluorophenyl)ethynyl)-2,3-dihydro-2,5-methanopyrido[3,4-f][1,4]oxazepin-4(5H)-yl)-2,2-dimethylbutan-1-one], `CC(F)(F)C(C)(C)C(=O)N1C[C@@H]2C[C@H]1c1cncnc1O2` [Compound 3-2, 1-((5S,8S)-7,8-dihydro-5,8-methanopyrimido[5,4-f][1,4]oxazepin-6(5H)-yl)-3,3-difluoro-2,2-dimethylbutan-1-one] is 36-fold higher in IC50: 34 nM for the first, 1210 nM for the second.

Going from `CC(C)(C(=O)N1C[C@@H]2C[C@H]1c1cc(F)cnc1O2)C(F)F` [Compound 3-1, 3,3-Difluoro-1-((2S,5S)-7-fluoro-2,3-dihydro-2,5-methanopyrido[3,2-f][1,4]oxazepin-4(5H)-yl)-2,2-dimethylpropan-1-one] to `CC(C)(C(=O)N1C[C@@H]2C[C@H]1c1cncc(C#N)c1S2)C(F)F` [Compound 4-1, (2S,5S)-4-(3,3-difluoro-2,2-dimethylpropanoyl)-2,3,4,5-tetrahydro-2,5-methanopyrido[3,4-f][1,4]thiazepine-9-carbonitrile], the IC50 falls from 317 nM to 24 nM (13-fold).

Compared with `O=C(N1C[C@@H]2C[C@H]1c1cncnc1O2)C12CCC(F)(CC1)C2` [Compound 3-3, ((5S,8S)-7,8-Dihydro-5,8-methanopyrimido[5,4-f][1,4]oxazepin-6(5H)-yl)(4-fluorobicyclo[2.2.1]heptan-1-yl)methanone], `Cc1ncc2c(n1)O[C@H]1C[C@@H]2N(C(=O)C23CCC(F)(CC2)C3)C1` [Compound 3-4, (4-fluorobicyclo[2.2.1]heptan-1-yl)((5S,8S)-2-methyl-7,8-dihydro-5,8-methanopyrimido[5,4-f][1,4]oxazepin-6(5H)-yl)methanone] is 3.3-fold higher in IC50: 377 nM for the first, 1230 nM for the second.

`N#Cc1cncc2c1S[C@H]1C[C@@H]2N(C(=O)C23CCC(C(F)(F)F)(CC2)C3)C1` [Compound 4-2, (2S,5S)-4-(4-(trifluoromethyl)bicyclo[2.2.1]heptane-1-carbonyl)-2,3,4,5-tetrahydro-2,5-methanopyrido[3,4-f][1,4]thiazepine-9-carbonitrile] and `N#Cc1cncc2c1S[C@H]1C[C@@H]2N(C(=O)C23CCC(F)(CC2)C3)C1` [Compound 4-3, (2S,5S)-4-(4-fluorobicyclo[2.2.1]heptane-1-carbonyl)-2,3,4,5-tetrahydro-2,5-methanopyrido[3,4-f][1,4]thiazepine-9-carbonitrile] are within 1.5-fold of each other in IC50: 15 nM for the first, 12 nM for the second.

First: CC(C)(CC#N)C(=O)N1C[C@@H]2C[C@H]1c1cncc(C#N)c1S2 [Compound 4-4, (2S,5S)-4-(3-cyano-2,2-dimethylpropanoyl)-2,3,4,5-tetrahydro-2,5-methanopyrido[3,4-f][1,4]thiazepine-9-carbonitrile]
Second: CC(C)(C#N)C(=O)N1C[C@@H]2C[C@H]1c1cncc(C#N)c1S2 [Compound 4-5, (2S,5S)-4-(2-cyano-2-methylpropanoyl)-2,3,4,5-tetrahydro-2,5-methanopyrido[3,4-f][1,4]thiazepine-9-carbonitrile]
The IC50 of the first is 2.4-fold lower: 42 nM for the first, 99 nM for the second. The first is the more potent here.

Going from `N#Cc1cncc2c1S[C@H]1C[C@@H]2N(C(=O)C2(C#N)CCC2)C1` [Compound 4-6, (2S,5S)-4-(1-cyanocyclobutane-1-carbonyl)-2,3,4,5-tetrahydro-2,5-methanopyrido[3,4-f][1,4]thiazepine-9-carbonitrile] to `N#Cc1cncc2c1S[C@H]1C[C@@H]2N(C(=O)C2(C#N)CCCC2)C1` [Compound 4-7, (2S,5S)-4-(1-cyanocyclopentane-1-carbonyl)-2,3,4,5-tetrahydro-2,5-methanopyrido[3,4-f][1,4]thiazepine-9-carbonitrile], the IC50 falls from 49 nM to 27 nM (1.8-fold).

`C[C@]1(C(=O)N2C[C@@H]3C[C@H]2c2cncc(C#N)c2S3)C[C@H](C#N)C1` [Compound 4-8, (2S,5S)-4-((1r,3S)-3-cyano-1-methylcyclobutane-1-carbonyl)-2,3,4,5-tetrahydro-2,5-methanopyrido[3,4-f][1,4]thiazepine-9-carbonitrile] and `N#Cc1cncc2c1OC[C@H]1CC[C@@H]2N1C(=O)C12CCC(F)(CC1)C2` [Compound 5-1, (3R,6S)-11-(4-Fluorobicyclo[2.2.1]heptane-1-carbonyl)-3,4,5,6-tetrahydro-2H-3,6-epiminooxocino[3,2-c]pyridine-10-carbonitrile] are within 1.5-fold of each other in IC50: 117 nM for the first, 95 nM for the second.

`N#Cc1cncc2c1OC[C@H]1CC[C@@H]2N1C(=O)C12CCC(C(F)(F)F)(CC1)C2` [Compound 5-2, (3R,6S)-11-(4-(trifluoromethyl)bicyclo[2.2.1]heptane-1-carbonyl)-3,4,5,6-tetrahydro-2H-3,6-epiminooxocino[3,2-c]pyridine-10-carbonitrile] showed an IC50 of 114 nM.

Reference: patent publication US20240228506A1, “RIPK1 INHIBITORS AND METHODS OF USE” (Merck Sharp & Dohme LLC, priority 2021, published 2024)
